Patent US20260223850A1, “SUBSTITUTED PYRROLIDONE COMPOUND, PREPARATION METHOD THEREFOR, COMPOSITION AND APPLICATION THEREOF” (QINGDAO KINGAGROOT CHEMICAL COMPOUND CO., LTD., priority 2023, published 2026)

How the values were obtained:
Experiment in all cases: Seedling stage sealing experiment for water-seeding
Type in all cases: in vivo
[1] = tested on: Echinochloa phyllopogon; settings: 120 g a.i./ha, seedling stage sealing, 15 days, fresh weight control rate
How it was run: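 Pre-emergence spray on soil-covered seeds in moist bowls, rates 120/60/30/15 g a.i./ha, n = 3. Fresh-weight control graded 0–9 at day 15.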

[2] = tested on: Echinochloa crusgalli; settings: 120 g a.i./ha, seedling stage sealing, 15 days, fresh weight control rate
[3] = tested on: Leptochloa chinensis; settings: 120 g a.i./ha, 15 days, fresh weight control rate
Text: (1) Seedling Stage Sealing Experiment for Water-Seeding:
The activity level criteria for plant damage (i.e., growth control rate) are as follows: • Level 9: completely dead; • Level 8: growth control rate greater than or equal to 90% and less than 100%; • Level 7: growth control rate greater than or equal to 80% and less than 90%; • Level 6: growth control rate greater than or equal to 70% and less than 80%; • Level 5: growth control rate greater than or equal to 50% and less than 70%; • Level 4: growth control rate greater than or equal to 30% and less than 50%; • Level 3: growth control rate greater than or equal to 20% and less than 30%; • Level 2: growth control rate greater than or equal to 10% and less than 20%; • Level 1: growth control rate less than 10%; • Level 0: no effect.
The above growth control rates are fresh weight control rates.
Echinochloa phyllopogon, Digitaria sanguinalis, Huaidao (rice cultivar), etc. were broadcasted on the surface of nutrition bowls filled with soil and fully covered by soil. The foregoing well-prepared nutrition bowls were then placed in a cultivation box with water filled to a suitable height to keep the soil in the nutrition bowls moist. A test compound of the present invention was individually dissolved with acetone, then diluted into solution of a certain concentration using a certain amount of water, and sprayed using a spray tower. The plants were placed on a greenhouse seedbed and cultured for 15 days, and the experimental results were then collected. The compound was applied at 120, 60, 30 and 15 g a.i./ha in triplicate, and the results were averaged.

| SMILES | Echinochloa phyllopogon activity level (growth control rate) [1] | Echinochloa crusgalli activity level (growth control rate) [2] | Leptochloa chinensis activity level (growth control rate) [3] |
| --- | --- | --- | --- |
| CN1C[C@H](c2cccc(C(F)(F)F)c2)[C@@H](C(=O)Nc2cnn(C)c2I)C1=O [186′] | 7 (Level 7: growth control rate greater than or equal to 80% and less than 90%) | 9 | 9 |
| CN1C[C@H](c2cccc(C(F)(F)F)c2)[C@@H](C(=O)Nc2cnn(C(F)F)c2C2CC2)C1=O [196′] | 9 | 9 | 9 |
| Cc1cc(C)cc([C@H]2CN(C)C(=O)[C@@H]2C(=O)Nc2cnn(C(F)F)c2Cl)c1 [269′] | 9 | 9 | 9 |
| CN1C[C@H](c2cccc(C3CCCC3)c2)[C@@H](C(=O)Nc2cnn(C)c2Cl)C1=O [152′] | 8 (Level 8: growth control rate greater than or equal to 90% and less than 100%) | 9 | 9 |
| COCc1c(NC(=O)[C@H]2C(=O)N(C)C[C@@H]2c2cccc(C(F)(F)F)c2)cnn1C [193′] | 7 (Level 7: growth control rate greater than or equal to 80% and less than 90%) | 9 | 9 |
| CCc1c(NC(=O)[C@H]2C(=O)N(C)C[C@@H]2c2cccc(C)c2)cnn1C [135′] | 7 (Level 7: growth control rate greater than or equal to 80% and less than 90%) | 9 | 9 |
| CCn1ncc(NC(=O)C2C(=O)N(C)CC2c2cccc(C(F)(F)F)c2)c1Cl (stereo not drawn) [Compound 95] | 6 (Level 6: growth control rate greater than or equal to 70% and less than 80%) | 6 (Level 6: growth control rate greater than or equal to 70% and less than 80%) | 9 |
| CN1C[C@H](c2cccc(C(F)(F)F)c2)[C@@H](C(=O)Nc2cnn(CC(F)(F)F)c2Cl)C1=O [161′] | 8 (Level 8: growth control rate greater than or equal to 90% and less than 100%) | 9 | 9 |
| C=Cc1c(NC(=O)[C@H]2C(=O)N(C)C[C@@H]2c2cccc(C(F)(F)F)c2)cnn1C [203′] | 9 | 9 | 9 |
| Cc1cccc([C@H]2CN(C)C(=O)[C@@H]2C(=O)Nc2cnn(C3CC3)c2Cl)c1 [128′] | 8 (Level 8: growth control rate greater than or equal to 90% and less than 100%) | 9 | 9 |
| CN1CC(c2ccc(Cl)c(Cl)c2)C(C(=O)Nc2cnn(C)c2Cl)C1=O (stereo not drawn) [Compound 309] | 5 (Level 5: growth control rate greater than or equal to 50% and less than 70%) | 6 (Level 6: growth control rate greater than or equal to 70% and less than 80%) | 9 |
| CN1CC(c2cc(C(F)(F)F)ccc2F)C(C(=O)Nc2cnn(C)c2Cl)C1=O (stereo not drawn) [Compound 80] | 6 (Level 6: growth control rate greater than or equal to 70% and less than 80%) | 6 (Level 6: growth control rate greater than or equal to 70% and less than 80%) | 6 (Level 6: growth control rate greater than or equal to 70% and less than 80%) |
| COc1cc(C)cc([C@H]2CN(C)C(=O)[C@@H]2C(=O)Nc2cnn(C)c2Cl)c1 [300′] | 7 (Level 7: growth control rate greater than or equal to 80% and less than 90%) | 9 | 9 |
| Cc1cccc([C@H]2CN(C)C(=O)[C@@H]2C(=O)Nc2c(O)nn(C)c2F)c1 [147′] | 8 (Level 8: growth control rate greater than or equal to 90% and less than 100%) | 9 | 9 |
| Cc1cccc([C@H]2CN(C)C(=O)[C@@H]2C(=O)Nc2cnn(C(C)C)c2Cl)c1 [130′] | 9 | 9 | 9 |
| COc1cccc([C@H]2CN(C)C(=O)[C@@H]2C(=O)Nc2cnn(C)c2C2CC2)c1 [217′] | 6 (Level 6: growth control rate greater than or equal to 70% and less than 80%) | 9 | 6 (Level 6: growth control rate greater than or equal to 70% and less than 80%) |
| COc1cccc(C2CN(C)C(=O)C2C(=O)Nc2cnn(C)c2Cl)c1F (stereo not drawn) [Compound 307] | 6 (Level 6: growth control rate greater than or equal to 70% and less than 80%) | 6 (Level 6: growth control rate greater than or equal to 70% and less than 80%) | 5 (Level 5: growth control rate greater than or equal to 50% and less than 70%) |
| CN1C[C@H](c2cccc(C(F)(F)F)c2)[C@@H](C(=O)Nc2cnn(CCCl)c2Cl)C1=O [160′] | 5 (Level 5: growth control rate greater than or equal to 50% and less than 70%) | 6 (Level 6: growth control rate greater than or equal to 70% and less than 80%) | 9 |
| CN1C[C@H](c2cccc(C(F)F)c2)[C@@H](C(=O)Nc2cnn(C)c2Cl)C1=O [154′] | 8 (Level 8: growth control rate greater than or equal to 90% and less than 100%) | 9 | 9 |
| CN1CC(c2cccc(Br)c2)C(C(=O)Nc2cnn(C)c2Cl)C1=O (stereo not drawn) [Compound 126] | 7 (Level 7: growth control rate greater than or equal to 80% and less than 90%) | 7 (Level 7: growth control rate greater than or equal to 80% and less than 90%) | 9 |
| C=CCc1cccc(C2CN(C)C(=O)C2C(=O)Nc2cnn(C)c2Cl)c1 (stereo not drawn) [Compound 24] | 8 (Level 8: growth control rate greater than or equal to 90% and less than 100%) | 9 | 9 |
| Cc1cc(Br)cc([C@H]2CN(C)C(=O)[C@@H]2C(=O)Nc2cnn(C)c2Cl)c1 [265′] | 9 | 9 | 9 |
| CN1CC(c2cc(F)c(F)c(F)c2)C(C(=O)Nc2cnn(C)c2F)C1=O (stereo not drawn) [Compound 323] | 5 (Level 5: growth control rate greater than or equal to 50% and less than 70%) | 5 (Level 5: growth control rate greater than or equal to 50% and less than 70%) | 6 (Level 6: growth control rate greater than or equal to 70% and less than 80%) |
| COc1cc(C2CN(C)C(=O)C2C(=O)Nc2cnn(C)c2Cl)ccc1C (stereo not drawn) [Compound 321] | 5 (Level 5: growth control rate greater than or equal to 50% and less than 70%) | 5 (Level 5: growth control rate greater than or equal to 50% and less than 70%) | 6 (Level 6: growth control rate greater than or equal to 70% and less than 80%) |
| CN1C[C@H](c2cccc(C(F)(F)F)c2)[C@@H](C(=O)Nc2cnn(CCF)c2Cl)C1=O [98′] | 9 | 9 | 9 |
| CCc1c(NC(=O)[C@H]2C(=O)N(C)C[C@@H]2c2cccc(C(F)(F)F)c2)cnn1C [190′] | 8 (Level 8: growth control rate greater than or equal to 90% and less than 100%) | 9 | 9 |
| CN1C[C@H](c2ccc3ccccc3c2)[C@@H](C(=O)Nc2cnn(C)c2Cl)C1=O [353′] | 7 (Level 7: growth control rate greater than or equal to 80% and less than 90%) | 9 | 9 |
